The test system of assay [1] is calcium dependent smooth muscle contraction (trachea). The assay is described as follows: Inhibition of Calcium Dependent Smooth Muscle Contraction (ICDSMC). The arrangement: species or system dogs. Conditions: Canis lupus familiaris, 50 mM KCl. Here is the method:
Tracheal rings, one cartilage segment wide (5-10 mm), are cut starting from the bronchial end. After cutting the cartilage, the trachealis muscle tissue is suspended in oxygenated Krebs-Henseleit buffer at 37° C. in a 25 mL tissue bath. After a 60 min equilibration period, the tissues are challenged with 10 μM carbachol. After 5 min the tissues are rinsed and allowed to rest 50 min. The tissues are then challenged with 50 mM KCl and after 30 min, the contractions are quantitated. The tissues are then rinsed and reequilibrated for 50 min. Test compounds are then added for 10 min, and the tissue is rechallenged with 50 mM KCl.
The percent inhibition of smooth muscle contraction is calculated from response data before and after drug treatment according to the following equation. [formula]

For assay [2], the target named is T1, calcium channel (specifically bound 3H-nitrendipine, heart membranes) (Oryctolagus cuniculus, UniProt P15381).
T1 construct: The heart is immediately removed, cleaned and chopped into small pieces; from tissue; host or cells: heart membranes of female New Zealand white rabbits (42,000×g pellet)
T1 sequence (P15381 whole entry, other chains not shown): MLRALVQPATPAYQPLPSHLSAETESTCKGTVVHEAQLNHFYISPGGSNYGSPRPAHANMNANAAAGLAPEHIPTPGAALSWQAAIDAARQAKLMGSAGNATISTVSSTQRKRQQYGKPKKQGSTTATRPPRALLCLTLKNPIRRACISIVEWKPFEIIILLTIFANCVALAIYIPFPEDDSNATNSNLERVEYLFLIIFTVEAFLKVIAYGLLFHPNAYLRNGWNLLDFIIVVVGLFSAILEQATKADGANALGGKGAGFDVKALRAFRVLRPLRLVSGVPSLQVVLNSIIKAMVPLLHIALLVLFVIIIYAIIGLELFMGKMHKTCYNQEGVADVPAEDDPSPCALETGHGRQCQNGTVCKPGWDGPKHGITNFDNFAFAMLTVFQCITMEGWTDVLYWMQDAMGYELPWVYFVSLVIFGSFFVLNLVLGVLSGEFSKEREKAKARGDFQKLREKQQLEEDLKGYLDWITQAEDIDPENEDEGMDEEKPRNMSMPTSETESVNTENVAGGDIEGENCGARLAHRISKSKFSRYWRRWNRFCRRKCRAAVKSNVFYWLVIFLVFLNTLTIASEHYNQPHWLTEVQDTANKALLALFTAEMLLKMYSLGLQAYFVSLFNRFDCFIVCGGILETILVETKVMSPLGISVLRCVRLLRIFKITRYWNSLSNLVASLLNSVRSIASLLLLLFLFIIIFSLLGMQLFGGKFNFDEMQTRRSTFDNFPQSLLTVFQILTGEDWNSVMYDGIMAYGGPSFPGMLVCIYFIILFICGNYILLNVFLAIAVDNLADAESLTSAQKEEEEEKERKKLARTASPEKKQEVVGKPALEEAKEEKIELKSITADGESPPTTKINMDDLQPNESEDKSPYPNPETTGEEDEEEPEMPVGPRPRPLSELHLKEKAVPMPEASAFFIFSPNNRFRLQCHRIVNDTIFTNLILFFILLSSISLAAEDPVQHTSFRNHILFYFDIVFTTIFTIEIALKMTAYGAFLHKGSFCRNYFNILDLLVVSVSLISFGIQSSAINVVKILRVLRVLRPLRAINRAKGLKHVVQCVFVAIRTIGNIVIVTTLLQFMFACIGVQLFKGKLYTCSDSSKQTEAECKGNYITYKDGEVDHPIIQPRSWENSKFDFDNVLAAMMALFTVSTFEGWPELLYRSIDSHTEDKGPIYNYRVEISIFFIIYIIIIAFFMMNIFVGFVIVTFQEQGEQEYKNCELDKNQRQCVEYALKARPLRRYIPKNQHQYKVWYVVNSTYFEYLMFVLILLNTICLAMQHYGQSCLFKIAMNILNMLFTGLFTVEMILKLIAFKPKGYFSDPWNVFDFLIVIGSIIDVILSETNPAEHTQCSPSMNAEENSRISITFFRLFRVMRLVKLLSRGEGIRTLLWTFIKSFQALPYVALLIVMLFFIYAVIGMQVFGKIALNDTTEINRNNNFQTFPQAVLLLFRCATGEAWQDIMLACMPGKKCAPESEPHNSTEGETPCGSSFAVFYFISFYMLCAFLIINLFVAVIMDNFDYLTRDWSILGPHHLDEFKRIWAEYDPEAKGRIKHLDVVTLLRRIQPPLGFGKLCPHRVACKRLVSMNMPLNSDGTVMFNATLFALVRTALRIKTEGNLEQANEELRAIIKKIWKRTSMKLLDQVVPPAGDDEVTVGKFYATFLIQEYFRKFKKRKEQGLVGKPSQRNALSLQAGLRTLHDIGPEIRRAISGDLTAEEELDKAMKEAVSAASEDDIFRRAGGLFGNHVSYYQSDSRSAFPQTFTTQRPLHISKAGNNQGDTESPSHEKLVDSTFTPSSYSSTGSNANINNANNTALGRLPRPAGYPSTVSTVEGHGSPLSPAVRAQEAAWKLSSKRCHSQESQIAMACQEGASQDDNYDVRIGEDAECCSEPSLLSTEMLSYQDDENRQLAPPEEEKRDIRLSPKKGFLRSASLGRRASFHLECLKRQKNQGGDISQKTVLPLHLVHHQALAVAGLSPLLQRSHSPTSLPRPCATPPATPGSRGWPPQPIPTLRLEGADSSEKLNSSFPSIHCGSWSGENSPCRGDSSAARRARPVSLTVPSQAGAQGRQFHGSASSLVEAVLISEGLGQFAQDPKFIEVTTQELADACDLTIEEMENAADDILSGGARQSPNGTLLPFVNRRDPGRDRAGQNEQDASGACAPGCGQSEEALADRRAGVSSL
T1 sequence (P13806 27-960 partner limits assumed, other chains not shown): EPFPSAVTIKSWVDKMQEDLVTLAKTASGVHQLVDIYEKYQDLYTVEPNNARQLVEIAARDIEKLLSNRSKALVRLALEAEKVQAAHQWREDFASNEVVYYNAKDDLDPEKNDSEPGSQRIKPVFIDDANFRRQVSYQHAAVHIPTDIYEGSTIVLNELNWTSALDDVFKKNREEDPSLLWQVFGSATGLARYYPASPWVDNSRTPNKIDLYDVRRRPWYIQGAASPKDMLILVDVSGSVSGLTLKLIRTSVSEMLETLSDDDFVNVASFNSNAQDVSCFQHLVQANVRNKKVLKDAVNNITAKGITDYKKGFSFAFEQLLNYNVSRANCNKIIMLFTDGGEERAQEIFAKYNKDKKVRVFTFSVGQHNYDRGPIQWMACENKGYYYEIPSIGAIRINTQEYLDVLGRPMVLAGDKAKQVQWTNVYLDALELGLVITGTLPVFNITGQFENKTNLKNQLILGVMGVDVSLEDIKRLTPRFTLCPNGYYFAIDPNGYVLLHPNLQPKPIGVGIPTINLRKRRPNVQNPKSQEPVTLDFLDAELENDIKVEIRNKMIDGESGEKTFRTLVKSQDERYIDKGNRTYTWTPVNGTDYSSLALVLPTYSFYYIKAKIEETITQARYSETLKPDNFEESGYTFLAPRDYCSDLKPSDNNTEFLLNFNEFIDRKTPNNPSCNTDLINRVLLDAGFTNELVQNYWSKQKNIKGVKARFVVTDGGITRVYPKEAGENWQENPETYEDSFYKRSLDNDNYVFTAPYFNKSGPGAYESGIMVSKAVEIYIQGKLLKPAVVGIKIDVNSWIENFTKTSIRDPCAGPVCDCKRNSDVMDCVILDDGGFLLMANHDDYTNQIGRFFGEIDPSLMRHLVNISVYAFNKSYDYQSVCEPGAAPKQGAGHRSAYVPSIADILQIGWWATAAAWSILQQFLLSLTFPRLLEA
T1 sequence (P13806 961-1106 partner limits assumed, other chains not shown): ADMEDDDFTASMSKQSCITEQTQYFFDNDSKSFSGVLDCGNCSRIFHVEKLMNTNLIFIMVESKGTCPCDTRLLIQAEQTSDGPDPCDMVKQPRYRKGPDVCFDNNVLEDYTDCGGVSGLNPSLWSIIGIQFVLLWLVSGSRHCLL
The assay is described as follows: Nitrendipine Binding Assay (NBA). Conditions: for IC50: 3H-nitrendipine 0.05-0.50 nM, 90 min at 4° C., pH 7.4. The arrangement: species or system New Zealand white rabbits. The protocol:
The NBA is performed on female, New Zealand white rabbits (1-2 kg) which are sacrificed by cervical dislocation. The heart is immediately removed, cleaned and chopped into small pieces. The tissue is homogenized in 5X volume of 0.05M Hepes buffer, pH 7.4. The homogenate is centrifuged at 4000×g for 10 min; the supernatant is recentrifuged at 42,000×g for 90 min. The resulting membrane pellet is resuspended (0.7 ml/g weight in 0.05M Hepes, pH 7.4 and stored at -70° C. until used. Each tube of the binding assay contains ^3 H-nitrendipine (0.05-0.50nM), buffer, membranes (0.10mL), and test compound in a total volume of 1.0 mL. After 90 min at 4° C., the bound nitrendipine is separated from the unbound by filtration on Whatman GF/C fibers. After rinsing, the filters are dried and counted in a liquid scintillation counter.
Non-specific binding of ^3 H-nitrendipine (that amount bound in the presence of excess unlabelled nitrendipine) is subtracted from the total bound to obtain specifically bound radiolabeled nitrendipine. The amount of specifically bound nitrendipine in the presence of a test compound is compared to that amount bound in the absence of a compound. A percent displacement (or inhibition) can then be obtained.

The structures appear in SMILES notation. Counter-ions that a name gives are not always drawn.

Inhibition and IC50 data for nine compounds are collected here from US4880824A, “Phenyl and benzoyl substituted imidazo-fused heterocyclic calcium channel blockers” (Ortho Pharmaceutical Corporation, priority 1987, dated 1989).

The term inhibition denotes the drop in the measured response relative to a control, in per cent. For orientation: IC50 means the midpoint of a concentration-inhibition curve. Consider `CCCCN(CCCC)CCCOc1ccc(-c2cn3nc(C)sc3n2)cc1` [Example 1d, 6-(4-Dibutylaminopropoxyphenyl)-2-methylimidazo[2,1-b]-1,3,4-thiadiazoledihydrochloride], for which, in assay [1], the inhibition at 1 µM came out at 50% and the inhibition at 10 µM was found to be 82%. Moreover, the inhibition at 5 µM in assay [1] (@ 5 μM) stood at 27%. For the same compound, the IC50 in assay [2] stood at 1100 nM.

Take `CCCCN(CCCC)CCCOc1ccc(-c2cn3ccsc3n2)cc1` [Example 2, 6-(4-Dibutylaminopropoxyphenyl)imidazo[2,1-b]thiazole dihydrochloride]: in assay [1], the inhibition at 1 µM worked out at 8%, the inhibition at 2 µM stood at 24%, the inhibition at 10 µM came out at 55% and the inhibition at 20 µM came to 81%. In assay [2], the IC50 amounted to 1500 nM.

Take `CCCCN(CCCC)CCCOc1ccc(-c2nc3sccn3c2C)cc1` [Example 3, 6-(4-Dibutylaminopropoxyphenyl)-5-methylimidazo[2,1-b]thiazole hydrochloride]: in assay [1], the inhibition at 1 µM is 11% and the inhibition at 10 µM was 75%. Also, in assay [2], the IC50 amounted to 1300 nM.

Regarding `CCCCN(CCCC)CCCOc1ccc(-c2cn3c(n2)sc2ccccc23)cc1` [Example 4, 6-(4-Dibutylaminopropoxyphenyl)imidazo[2,1-b]benzothiadihydrochloride], the inhibition at 20 µM in assay [1] worked out at 38%. The IC50 in assay [2] was 3100 nM.

As for `CCCCN(CCCC)CCCOc1ccc(-c2cn3nccnc3n2)cc1` [Example 5, 2-(4-Dibutylaminopropoxyphenyl)imidazo[1,2-b]-1,2,4-triazine hydrochloride], in assay [1], the inhibition at 10 µM was determined as 45% and the inhibition at 20 µM amounted to 85%. In assay [2], the IC50 is 600 nM.

On to `CCCCN(CCCC)CCCOc1ccc(-c2cn3cccnc3n2)cc1` [Example 6, 2-(4-Dibutylaminopropoxyphenyl)imidazo[1,2-a]pyrimidine dihydrochloride], for which, in assay [1], the inhibition at 2 µM stood at 26%, the inhibition at 10 µM worked out at 46% and the inhibition at 20 µM stood at 65%. In assay [2] (@ 68 μM, read-out: NBA percent displacement (or inhibition)), the inhibition at 68 µM stood at 43%.

For the compound `CCCCN(CCCC)CCCOc1ccc(-c2cn3ccc(C)nc3n2)cc1` [Example 7, 2-(4-Dibutylaminopropoxyphenyl)-7-methylimidazo-[1,2-a]pyrimidine trihydrochloride], in assay [1], the inhibition at 2 µM was found to be 25% and the inhibition at 10 µM stood at 39%.

Consider `CCCCN(CCCC)CCCOc1ccc(C(=O)c2cnc3ncccn23)cc1` [Example 8c, 3-(4-Dibutylaminopropoxybenzoyl)imidazo[1,2-a]pyrimidine dihydrochloride], for which, in assay [1], the inhibition at 1 µM came to 70%. Also, the inhibition at 0.1 µM in assay [1] (@ .1 μM) came out at 37%. Moreover, in assay [1] (@ .5 μM), the inhibition at 0.5 µM stood at 60%. The IC50 in assay [2] was determined as 7000 nM.

Take `CCCCN(CCCC)CCCOc1ccc(C(=O)c2cnc3nc(C)ccn23)cc1` [Example 9b, 3-(4-Dibutylaminopropoxybenzoyl)-7-methylimidazo[1,2-a]-pyrimidine hydrochloride]: the inhibition at 10 µM in assay [1] turned out to be 19%.
